{
  "source": "patent US20230383291A1",
  "about": "“PEPTIDE-BASED TRANSDUCTION OF NON-ANIONIC POLYNUCLEOTIDE ANALOGS FOR GENE EXPRESSION MODULATION” (FELDAN BIO INC., priority 2020, published 2023)",
  "key": {"[1]": {"test_system": "Gli1 protein", "experiment": "Gli1 knock-down in DU145 cells, Western blot", "type": "cell-based, Human", "details": "6 μM PMO", "description": "DU145 cells were trypsinized and plated (500 000 cells/well) in a 24 well-dish the day prior to the experiment. […] Cells were washed once with PBS and delivery mixes were added on cells for five minutes. Then, 2 mL of RPMI-1640 containing 10% FBS was added to the mix and removed. Untreated cells were incubated with RPMI-1640 only. Cells were incubated in fresh RPMI-1640 containing 10% FBS. Forty height hours later, medium was removed and cells were washed once with PBS prior to trypsinization. Cells were harvested, collected by centrifugation, washed, and resuspended with PBS. Then, PMO-FITC positive and PMO-FITC negative cells were sorted and collected by virtue of FACS (BD FACS Aria Fusion). FITC-positive and FITC-negative cell samples were collected by centrifugation and resuspended in 50 μL protein extraction RIPA buffer (150 mM NaCl, 1% Nonidet™ P-40, 0.1% SDS, 0.5% Sodium deoxycholate, 25 mM Tris). Total protein concentrations were measured with a BCA protein assay kit. For all conditions, 10 μg of proteins were prepared at a final volume of 40 μL with 4× Laemmeli and RIPA buffer. Protein samples were then heated at 90° C. and separated through an 8% SDS-PAGE gel. Proteins were then transferred over night (25 volts) onto a […] PVDF membrane. Membranes were blocked using a 5% bovine serum albumin, Tris Buffer Saline, 0.1% Tween® 20 solution (5% BSA/TBS-T) for an hour. After blocking, the membrane was incubated for an hour with a 5% BSA/TBS-T solution containing anti alpha-Actinin (D6F6) primary antibody at a 1:1000. Alpha-Actinin protein present in the cell lysates served as loading control. Subsequently, the membranes were incubated over night with a 5% BSA/TBS-T solution containing anti-Gli1 primary antibody diluted 1:500. The membrane was then subjected to a 1-hour incubation at 1:5000 dilution of HRP-conjugated goat anti-rabbit secondary antibody 5% BSA/TBS-T solution. Chemiluminescence detection was performed using Clarity™ Western ECL Substrate and a ChemiDoc™ XRS apparatus. Gli1 and Alpha-Actinin densitometry was assessed using ImageJ™ software. […]"}, "[2]": {"test_system": "Gli1 protein", "experiment": "Gli1 knockdown in RH-30 cells, Western blot", "type": "cell-based, Human", "details": "6 μM cargo with 5 μM FSD250, 2 minutes, 24 h", "description": "A Gli1 knock-down experiment was performed generally as described in Example 6 to compare shuttle agent-mediated transduction of an unmodified PMO versus a commercially available self-internalizing Vivo-Morpholino (VivoPMO), which is a PMO chemically modified with a terminal octa-guanidinium dendrimer to facilitate entry into cells. Briefly, RH-30 cells were contacted with a delivery mix of 6 μM of cargo (either PMO-Gli1 or VivoPMO-Gli1) in the presence or absence of 5 μM of the synthetic peptide shuttle agent FSD250 for 2 minutes in RPMI. Cells were then washed, incubated in complete medium and then collected for Gli1 protein expression analysis by Western blot after 24 h using an anti-Gli1 polyclonal Ab (Abcam ab273018, 150 kDa), an anti-GAPDH Ab (Abcam ab181602, 37 kDa), and anti-Rabbit HRP secondary Ab. […] Indeed, this is consistent with the manufacturer's recommended incubation time of 2-4 hours for VivoPMOs to achieve sufficient self-internalization via endocytosis. Regardless, the results in FIG. 10 highlight the vast difference in internalization kinetics between the slow endocytosis-dependent intracellular delivery of VivoPMOs versus the rapid and efficient PMO transduction observed using synthetic peptide shuttle agents.\nFour different PMOs were designed and synthesized targeting different regions proximal to the region or start codon of the human Gli1 gene. […]"}, "[3]": {"test_system": "Gli1 protein", "experiment": "Gli1 protein level in cells isolated from treated tumor explants, cytofluorometry", "type": "cell-based", "details": "PMO-Gli1 and shuttle agent combination; between 24 and 48 hours of incubation; data not shown", "description": "Freshly obtained basal cell carcinoma-type tumors following Mohs-type surgery were incubated in complete DMEM culture medium on a wire mesh with the surface exposed to air. In order to allow the cargo to be delivered to the epidermis and dermis, the tumors were washed with PBS 1× and the stratum corneum of the explants is permeabilized with a Pantec PLEASE™ laser according to the following parameters: pore density 2.5%, 1 pulse/pore, Array Size 14 mm, depth pores 20 μm (4.9 J/cm^2, 0.8 W). The explants were then divided into two halves, one half was treated with a solution of PBS 1×-2% hydroxyethyl cellulose containing 25 μM of PMO-Gli1-Cy5 and 40 μM of FSD250, while the other half was treated with the same solution containing PMO-Gli1-cy5 only (without shuttle agent; control). […] 10 μm sections were transferred to coverslips and treated with ProLong™ Diamond for fluorescence microscopy analysis. […] The levels of Gli1 protein were measured by cytofluorometry at different times of culture following the fixation and labeling of the isolated dermal and epidermal cells with an anti Gli1-Alexa 647 antibody. Between 24 and 48 hours of incubation following the treatment of the tumors, the level of the Gli1 protein decreased considerably (50%) in cultured cells which were treated with the PMO-Gli1 and shuttle agent combination, measured by flow cytometry (data not shown)."}},
  "data": [
    {"substance": "PMO-Gli1: antisense PMO molecule designed to knock-down expression of the Gli1 protein; off-target control in the GFPd assay (antisense GTCATCGAGTTGAACATGGCGTCTC; all phosphorodiamidate morpholino (PMO))", "values": [
      {"measurement": "Gli1 protein expression", "setting": "[1]; 3.75 μM FSD250, 48 hours", "result": "knocked-down"},
      {"measurement": "Gli1 protein expression", "setting": "[1]; FITC+ cells vs FITC− cells, 5 μM FSD250, 48 hours", "result": "knocked-down"},
      {"measurement": "Knockdown of Gli1 protein", "setting": "[2]", "result": "Knockdown of Gli1 protein"},
      {"measurement": "decrease of the level of the Gli1 protein", "setting": "[3]", "result": 50, "unit": "%"}
    ]}
  ]
}
